Counter-ions that a name gives are not always drawn. Marks after values point to notes of the source that are not given here.
Legend:
ICR mice [1] = assay: Tail suspension test in mice, administration by gavage; type: in vivo; conditions: 1 h after administration, over 4 min; for Immobility Time (s): listed as paeoniflorin
Description: In the second day, 1 h after the administration, the tail of mouse (2 cm away from the tip of the tail) was fixed to the connection line of 100 g tension transducer by adhesive plaster, and the mouse was hung upside down, with the head about 15 cm away from the experimental bench, two animals isolated from each other by a cardboard were simultaneously tested for each time. The transducer was connected to the Medlab bio-signals acquisition and processing system, after 2 min of adaption, the result over 4 min was recorded, and the immobility situation was converted into the time(s). The experimental data were expressed as X±SD, and the analysis of variance for the experimental results was carried out by SPSS 11.5 statistical software (purchased from SPSS Inc., USA).

ICR mice [2] = assay: Forced swimming test in mice; type: in vivo; conditions: 1 h after administration, last 4 min; for Immobility Time (s): listed as paeoniflorin
Description: Each group was administered by gavage at a dose of 0.2 ml/10 g weight, for two days, deionized water was administered to vehicle group.
In the second day, 1 h after the administration, the mice were placed separately into a water cylinder with 20 cm of height, 18 cm of diameter, 10 cm of depth, 23±2° C. of water temperature; observing each for 6 min, after 2 min of adaption, the immobility time over the last 4 min was recorded.
The data was expressed as x±s, analyzed by SPSS 13.0 statistical software by means of One-Way ANOVA test, the homogeneity of variance was tested by LSD and SNK test.

[3] = system: rats with chronic stress induced depression model; assay: Open-field test, chronic stress induced depression; type: in vivo, SD rats; conditions: 3 mg/kg/day gavage for 21 days, 3 minutes, Hydrochloride
Description: (§1) The gavage was carried out along with the model establishment, once a day, for 21 days. […] Referring to the methods in the literature (Xu Jing, Li Xiaoqiu, Establishment and evaluation of the model of chronic stress induced depression, Chinese Journal of Behavioral Medical Science, 2003, 12(1): 14 16), the model was established (i.e., establishing animal model of anti-depression by means of CUMS): the foot electric shock (voltage: […] (5 minutes), drying at 45° C. (5 minutes), tail nipping (1 min), wet feeding (wet mat), reversed day and night (24 hours), fasting (24 hours), water deprivation (24 hours) were randomly scheduled within 21 days, one kind of stimulations was given for each day, except for the animals of vehicle group, the others were separately caged with free diet, at the room temperature of (24±1)° C., with the relative humidity of (60±10)%. The open-field device was of 40 cm in height, 80 cm in both length and width, without cap, the inner walls and the bottom of the device are black, and the bottom was divided into 25 squares with equal area. The numbers of squares that the animals pass through were designated as the score of horizontal movement, and the numbers of standing (with the forelegs above 1 cm away from the ground) were designated as the score of vertical movement. Each animal was measured for one time, 3 minutes for each measurement. All parameters to be tested were expressed as Mean±SD (X±s), and tested by means of analysis of variance (ANOVA) in SPSS 12.0 software (purchased from SPSS Inc., USA), p<0.05 means that there was a significant difference.

[4] = system: rats with chronic stress induced depression model; assay: Consumption of 1% aqueous sucrose, chronic stress induced depression; type: in vivo, SD rats; conditions: 3 mg/kg/day gavage, 1% aqueous sucrose for 1 hour
Description: The gavage was carried out along with the model establishment, once a day, for 21 days. […] Referring to the methods in the literature (Xu Jing, Li Xiaoqiu, Establishment and evaluation of the model of chronic stress induced depression, Chinese Journal of Behavioral Medical Science, 2003, 12(1): 14 16), the model was established (i.e., establishing animal model of anti-depression by means of CUMS): the foot electric shock (voltage: […] (5 minutes), drying at 45° C. […] All parameters to be tested were expressed as Mean±SD (X±s), and tested by means of analysis of variance (ANOVA) in SPSS 12.0 software (purchased from SPSS Inc., USA), p<0.05 means that there was a significant difference.

[5] = system: rats with chronic stress induced depression model; assay: Jump stair test, chronic stress induced depression; type: in vivo, SD rats; conditions: 3 mg/kg/day gavage for 21 days, 5 minutes, Hydrochloride; for Error times in testing period: after 24 hours
Description: The gavage was carried out along with the model establishment, once a day, for 21 days. […] Referring to the methods in the literature (Xu Jing, Li Xiaoqiu, Establishment and evaluation of the model of chronic stress induced depression, Chinese Journal of Behavioral Medical Science, 2003, 12(1): 14 16), the model was established (i.e., establishing animal model of anti-depression by means of CUMS): the foot electric shock (voltage: […] (5 minutes), drying at 45° C. (5 minutes), tail nipping (1 min), wet feeding (wet mat), reversed day and night (24 hours), fasting (24 hours), water deprivation (24 hours) were randomly scheduled within 21 days, one kind of stimulations was given for each day, except for the animals of vehicle group, the others were separately caged with free diet, at the room temperature of (24±1)° C., with the relative humidity of (60±10)%. […] A wooden platform (height: 5 cm, diameter: 8 cm) was placed into the box at the left back corner. Animals were placed into the response box to adapt to the environment for 3 minutes, and then the box was immediately electrified with […] alternating current, the normal response of the animal which suffered from electric shock was to jump onto the platform in order to avoid such harmful stimulation. Most animals were likely to jump down to the copper railings again or for several times, and then quickly jump back to the platform after suffering from the electric shock, being trained like this for 5 minutes, the times that the rats suffered from the electric shock were designated as error times. The test was carried out again after 24 hours, rats were placed on the platform and the box was charged, timing and recording the error times for 5 minutes. All parameters to be tested were expressed as Mean±SD (X±s), and tested by means of analysis of variance (ANOVA) in SPSS 12.0 software (purchased from SPSS Inc., USA), p<0.05 means that there was a significant difference.

[6] = system: rats with chronic stress induced depression model; assay: Body weights of rats with chronic stress induced depression (CUMS); type: in vivo, SD rats; conditions: 3 mg/kg/day gavage
Description: as §1, with “(60±10)%.” for “(60±10)%. The open-field device was of 40 cm in height, 80 cm in both length and width, without cap, the inner walls and the bottom of the device are black, and the bottom was divided into 25 squares with equal area. The numbers of squares that the animals pass through were designated as the score of horizontal movement, and the numbers of standing (with the forelegs above 1 cm away from the ground) were designated as the score of vertical movement. Each animal was measured for one time, 3 minutes for each measurement.”

ICR mice [7] = assay: Tail suspension test in mice, extract of Radix paeoniae alba; type: in vivo; conditions: 3.5 mg/kg/d gavage for 2 days; 1 hour after last administration; 4 min; Hydrochloride
Description: Each group was administered at a dosage of 0.2 ml/10 g body weight. The vehicle group was administered with deionized water by gavage once a day, for 2 days. The test was carried out at 1 hour after the last administration. The tail of mouse (2 cm away from the tip of the tail) was fixed to the connection line of 100 g tension transducer with adhesive plaster, and the mouse was hung upside down, with the head about 15 cm away from the experimental bench, the transducer was connected to the Medlab bio-signals acquisition and processing system, after 2 min of adaption, the immobility time(s) for 4 min was recorded.
The experimental data was expressed as X±s, analyzed by SPSS 13.0 statistical software by means of One-Way ANOVA test.

ICR mice [8] = assay: Reserpine-induced hypothermia test in mice; type: in vivo; conditions: 3 mg/kg gavage 7 days, reserpine 2 mg/kg i.p., rectal temperature 4 hours after reserpine
Description: 50 mice were randomly divided into five groups (n=10 for each group): high-dose group (14 mg*kg^−1), medium-dose group (7 mg*kg^−1), low-dose group (3.5 mg*kg^−1) of Albiflorin; control group of paroxetine (3 mg/kg); model group of physiological saline. The gavage was carried out for 7 days. Rectal temperatures of mice were measured at 1 hour after the administration on the 8th day, then reserpine was administered by intraperitoneal injection at a dose of 2 mg/kg, rectal temperatures of mice were measured again at 4 hours after the injection of reserpine. The depth into anus of thermometer and the time for each temperature measurement of mice was coincident. The experimental data was expressed as X±SD, and the analysis of variance for the experimental results was carried out by SPSS 11.5 statistical software (purchased from SPSS Inc., USA), the experimental results were shown in Table 4.

[9] = 3.5 mg/kg/d by gavage for two days
[10] = 7 mg/kg/d by gavage for two days
[11] = 14 mg/kg/d by gavage for two days
[12] = Day 14, listed as Positice control, Hydrochloride
[13] = Day 14, listed as Prozac, Hydrochloride
[14] = Day 21, listed as Positice control, Hydrochloride
[15] = Day 21, listed as Prozac, Hydrochloride

With `C[C@@]12C[C@@]3(O)O[C@@H](O1)[C@]1(COC(=O)c4ccccc4)[C@H]3C[C@@]12O[C@@H]1O[C@H](CO)[C@@H](O)[C@H](O)[C@H]1O` [Paeoniflorin] the “Immobility Time” value (ICR mice [1]; [9]) was 85.62 ± 31.225 s, the “Immobility Time (s)” value (ICR mice [1]; [9]) was “not significantly different from the model group” and the “Immobility Time” value (ICR mice [1]; [10]) was 76.83 ± 36.452 s. The “Immobility Time (s)” value (ICR mice [1]; [10]) was “not significantly different from the model group”, the “Immobility Time” value (ICR mice [1]; [11]) was 81.32 ± 32.756 s and the “Immobility Time (s)” value (ICR mice [1]; [11]) was “not significantly different from the model group”. The “Immobility Time” value (ICR mice [2]; [9]) was 58.60 ± 32.320 s, the “Immobility Time (s)” value (ICR mice [2]; [9]) was “not significantly different from the model group” and the “Immobility Time” value (ICR mice [2]; [10]) was 43.94 ± 38.341 s. For the same compound, the “Immobility Time (s)” value (ICR mice [2]; [10]) was “not significantly different from the model group”, the “Immobility Time” value (ICR mice [2]; [11]) was 50.39 ± 31.257 s and the “Immobility Time (s)” value (ICR mice [2]; [11]) was “not significantly different from the model group”.

For `CNCCC(Oc1ccc(C(F)(F)F)cc1)c1ccccc1` (stereo not drawn) [Positive control, Fluoxetine Hydrochloride], the “Immobility Time” value (ICR mice [1]; [9]) was 66.21 ± 33.253 s, the “Score of horizontal movement” value ([3]; listed as Positice control) was 28.09 ± 18.55 and the “Score of vertical movement” value ([3]; listed as Positice control) was 7.00 ± 3.90. For the same compound, the “Score of horizontal movement” value ([3]; listed as Prozac) was “significantly increased”, the “Score of vertical movement” value ([3]; listed as Prozac) was “significantly increased” and the “comsumption of aqeous sucrose” value ([4]; Day 0) was 12.67 ± 5.53 mL. The “comsumption of aqeous sucrose” value ([4]; Day 7) was 10.00 ± 4.24 mL, the “comsumption of aqeous sucrose” value [4, 12] was 15.00 ± 2.22 mL and the “comsumption of aqeous sucrose” value [4, 13] was “significantly increased”. The “comsumption of aqeous sucrose” value [4, 14] was 14.91 ± 2.68 mL, the “comsumption of aqeous sucrose” value [4, 15] was “significantly increased” and the “Error times in training period” value [5] was 2.09 ± 1.22. The “Error times in training period” value ([5]; listed as Prozac) was “significantly reduced”, the “Error times in testing period” value [5] was 0.72 ± 1.19 and the “Error times in testing period” value ([5]; listed as Prozac) was “significantly reduced”. It also gave a body weights ([6]; Day 0) of 257.19 ± 9.90 g, a body weights ([6]; Day 7) of 265.90 ± 13.94 g and a body weights [6, 12] of 280.64 ± 12.32 g. The body weights [6, 13] was “significantly increased”, the body weights [6, 14] was 291.00 ± 11.31 g and the body weights [6, 15] was “significantly increased”. The Immobility Time (ICR mice [7]) was “significantly reduced”.

`Fc1ccc([C@@H]2CCNC[C@H]2COc2ccc3c(c2)OCO3)cc1` [Paroxetine] was tested, and the “Hypothermia value (° C.)” value (ICR mice [8]) was 2.38 ± 0.69** ° C and the “Hypothermia value (° C.)” value (ICR mice [8]; listed as paroxetine) was “significantly recede”.
